In publication PMC8695591 (RSC Advances, 2021):

Biological target: cathepsin B (Homo sapiens, UniProt P07858)
Test: Cathepsin B inhibition assay
Format: biochemical

IC50: 7.5 µM
SMILES: CC(=O)N[C@@H](CC(C)C)C(=O)N[C@@H](CC(C)C)C(=O)N[C@H](C=O)CCCNC(=N)N [Leupeptin]
